From the NIST ThermoML archive (doi:10.1021/je201116t)

Assay: xn = mol fraction of the nth substance listed
Conditions: 101 kPa, Liquid; for viscosity: Capillary tube (Ostwald / Ubbelohde) method

CCC(=O)[O-].CC[NH+]1CCNCC1 [N-ethylpiperazinium propionate] + CO
Conditions | mass density, 298.15 K [kg/m3] | mass density, 303.15 K [kg/m3] | mass density, 308.15 K [kg/m3] | mass density, 313.15 K [kg/m3] | viscosity, 298.15 K [mPa·s] | viscosity, 303.15 K [mPa·s] | viscosity, 308.15 K [mPa·s] | viscosity, 313.15 K [mPa·s]
x2 = 0 | 1008.36 | 1004.38 | 1000.33 | 996.237 | 243.49 | 164.81 | 113.44 | 80.93
x2 = 0.107 | 1004.94 | 1000.96 | 996.919 | 992.856 | 172.19 | 121.04 | 86.27 | 62.74
x2 = 0.21 | 1000.73 | 996.739 | 992.724 | 988.682 | 123.07 | 89.92 | 65.93 | 49.08
x2 = 0.297 | 996.263 | 992.299 | 988.292 | 984.255 | 84.02 | 63.49 | 47.38 | 36.14
x2 = 0.402 | 989.36 | 985.408 | 981.411 | 977.382 | 52.96 | 40.86 | 31.63 | 24.89
x2 = 0.5021 | 980.548 | 976.585 | 972.582 | 968.548 | 32.54 | 25.5 | 20.36 | 16.5
x2 = 0.5994 | 968.97 | 964.991 | 960.968 | 956.912 | 18.41 | 15.03 | 12.4 | 10.4
x2 = 0.7015 | 951.447 | 947.38 | 943.3 | 939.188 | 9.416 | 7.866 | 6.73 | 5.804
x2 = 0.7998 | 925.328 | 921.15 | 916.957 | 912.733 | 4.331 | 3.807 | 3.366 | 2.989
x2 = 0.8999 | 879.78 | 875.414 | 871.008 | 866.573 | 1.754 | 1.592 | 1.451 | 1.327

CCC(=O)[O-].CC[NH+]1CCNCC1 [N-ethylpiperazinium propionate] + CCO
Conditions | mass density, 298.15 K [kg/m3] | mass density, 303.15 K [kg/m3] | mass density, 308.15 K [kg/m3] | mass density, 313.15 K [kg/m3] | viscosity, 298.15 K [mPa·s] | viscosity, 303.15 K [mPa·s] | viscosity, 308.15 K [mPa·s] | viscosity, 313.15 K [mPa·s]
x2 = 0 | 1008.36 | 1004.38 | 1000.33 | 996.237 | 243.49 | 164.81 | 113.44 | 80.93
x2 = 0.0971 | 1002.79 | 998.809 | 994.769 | 990.695 | 170.13 | 119.44 | 85.41 | 61.23
x2 = 0.2017 | 995.311 | 991.322 | 987.293 | 983.232 | 109.9 | 82.6 | 60.3 | 44.79
x2 = 0.3033 | 986.576 | 982.598 | 978.579 | 974.526 | 75.85 | 55.8 | 42.03 | 32.1
x2 = 0.3983 | 976.628 | 972.658 | 968.645 | 964.592 | 48.89 | 37.01 | 28.65 | 22.63
x2 = 0.5001 | 963.41 | 959.429 | 955.408 | 951.35 | 29.59 | 23.34 | 18.57 | 15.06
x2 = 0.6006 | 946.741 | 942.745 | 938.702 | 934.623 | 17.18 | 14 | 11.54 | 9.602
x2 = 0.6994 | 925.277 | 921.231 | 917.149 | 913.029 | 9.403 | 7.923 | 6.734 | 5.766
x2 = 0.8001 | 895.282 | 891.163 | 887.012 | 882.818 | 4.925 | 4.279 | 3.74 | 3.286
x2 = 0.8998 | 852.465 | 848.243 | 843.982 | 839.679 | 2.437 | 2.175 | 1.947 | 1.749

CCC(=O)[O-].CC[NH+]1CCNCC1 [N-ethylpiperazinium propionate] + CCCO
Conditions | mass density, 298.15 K [kg/m3] | mass density, 303.15 K [kg/m3] | mass density, 308.15 K [kg/m3] | mass density, 313.15 K [kg/m3] | viscosity, 298.15 K [mPa·s] | viscosity, 303.15 K [mPa·s] | viscosity, 308.15 K [mPa·s] | viscosity, 313.15 K [mPa·s]
x2 = 0 | 1008.36 | 1004.38 | 1000.33 | 996.237 | 243.49 | 164.81 | 113.44 | 80.93
x2 = 0.1036 | 1000.19 | 996.232 | 992.229 | 988.196 | 160.34 | 113.63 | 81.46 | 59.74
x2 = 0.2026 | 991.259 | 987.3 | 983.298 | 979.269 | 107.67 | 76.59 | 56.22 | 42.19
x2 = 0.3041 | 980.78 | 976.824 | 972.831 | 968.803 | 70.22 | 52.12 | 39.45 | 30.42
x2 = 0.4017 | 968.85 | 964.943 | 960.993 | 956.993 | 47.45 | 36.21 | 28.19 | 22.22
x2 = 0.4993 | 955.014 | 951.074 | 947.084 | 943.06 | 30.81 | 24.26 | 19.38 | 15.67
x2 = 0.5997 | 937.035 | 933.087 | 929.086 | 925.047 | 18.93 | 15.39 | 12.6 | 10.42
x2 = 0.6994 | 915.033 | 911.053 | 907.028 | 902.965 | 11.31 | 9.444 | 7.899 | 6.684
x2 = 0.8009 | 886.568 | 882.553 | 878.491 | 874.385 | 6.389 | 5.454 | 4.689 | 4.059
x2 = 0.8997 | 850.105 | 846.036 | 841.932 | 837.782 | 3.609 | 3.15 | 2.762 | 2.435

CCC(=O)[O-].CC[NH+]1CCNCC1 [N-ethylpiperazinium propionate] + CCCCO
Conditions | mass density, 298.15 K [kg/m3] | mass density, 303.15 K [kg/m3] | mass density, 308.15 K [kg/m3] | mass density, 313.15 K [kg/m3] | viscosity, 298.15 K [mPa·s] | viscosity, 303.15 K [mPa·s] | viscosity, 308.15 K [mPa·s] | viscosity, 313.15 K [mPa·s]
x2 = 0 | 1008.36 | 1004.38 | 1000.33 | 996.237 | 243.49 | 164.81 | 113.44 | 80.93
x2 = 0.1025 | 998.465 | 994.495 | 990.478 | 986.427 | 177.49 | 122.06 | 84.94 | 61.07
x2 = 0.2018 | 987.497 | 983.536 | 979.527 | 975.484 | 133.79 | 91.02 | 63.82 | 46.53
x2 = 0.2999 | 975.365 | 971.427 | 967.437 | 963.409 | 98.72 | 67.32 | 47.84 | 35.22
x2 = 0.3989 | 961.397 | 957.475 | 953.503 | 949.491 | 73.16 | 50.02 | 35.72 | 26.48
x2 = 0.5016 | 944.783 | 940.876 | 936.907 | 932.906 | 53.48 | 36.42 | 26.02 | 19.37
x2 = 0.6004 | 926.29 | 922.385 | 918.422 | 914.42 | 38.82 | 26.35 | 18.8 | 14.05
x2 = 0.7012 | 903.96 | 900.045 | 896.078 | 892.071 | 27.07 | 18.12 | 12.92 | 9.675
x2 = 0.8008 | 877.764 | 873.84 | 869.866 | 865.851 | 17.51 | 11.84 | 8.502 | 6.434
x2 = 0.8995 | 845.961 | 842.05 | 838.083 | 834.079 | 9.611 | 6.701 | 4.966 | 3.87
